Reference: patent US12110293B2, “Substituted triazolo quinoxaline derivatives” (GRÜNENTHAL GMBH, priority 2018, dated 2024)

Molecular target: T1, glucocorticoid receptor (Homo sapiens, UniProt P04150)
T1 construct: expressed in transfected cells
T1 sequence (P04150 524-758 limits assumed): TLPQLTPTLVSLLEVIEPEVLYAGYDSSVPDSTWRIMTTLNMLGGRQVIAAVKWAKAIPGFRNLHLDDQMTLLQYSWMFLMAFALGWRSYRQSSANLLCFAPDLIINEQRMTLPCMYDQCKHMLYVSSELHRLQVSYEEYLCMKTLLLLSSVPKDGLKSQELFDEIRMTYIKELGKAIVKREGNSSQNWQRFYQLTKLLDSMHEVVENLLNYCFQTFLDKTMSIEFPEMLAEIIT
Assay: Agonistic mode of action on the glucocorticoid receptor (CHO-Gal4/GR luciferase reporter cell line)
Assay type: cell-based
Conditions: range class observed in the agonistic assay or the antagonistic assay (CHO-Gal4/GR reporter cells); table does not say which mode applies per example
Outline: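 CHO cells stably carrying GAL4 DBD–GR ligand-binding-domain fusion and GAL4-UAS firefly luciferase reporter, 5000 cells/well grown 24 h, then compounds added in Opti-MEM at 8 half-log concentrations from 10 μM to 0.003 μM (0.5% DMSO), quadruplicates. Agonist-induced luminescence read on FLIPR Tetra; EC50 calculated.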

SMILES	IC50 or EC50 (agonist or antagonist mode not specified)
Cc1nnc2n1-c1c(cc(F)c(-c3cccc4c3ccn4CC3CC3)c1F)NC2(C)C [Example 202, 8-[1-(Cyclopropyl-methyl)-1H-indol-4-yl]-7,9-difluoro-1,4,4-trimethyl-5H-[1,2,4]triazolo[4,3-a]quinoxaline]	< 100 nM
Cc1c(-c2cc(F)cc3c2ccn3S(C)(=O)=O)c(C(F)(F)F)cc2c1-n1c(C)nnc1C(C)(C)N2 [Example 83, 8-(6-Fluoro-1-methylsulfonyl-1H-indol-4-yl)-1,4,4,9-tetramethyl-7-(trifluoromethyl)-5H-[1,2,4]triazolo[4,3-a]quinoxaline]	1000 to 15000 nM
Cc1nnc2n1-c1c(cc(F)c(-c3cccc4c(C5CCC5)c[nH]c34)c1Cl)NC2(C)C [Example 41, 9-chloro-8-(3-cyclobutyl-1H-indol-7-yl)-7-fluoro-1,4,4-trimethyl-4,5-dihydro-[1,2,4]triazolo[4,3-a]quinoxaline]	< 100 nM
COCCn1ccc2c(-c3c(OC(F)(F)F)cc4c(c3C)-n3c(C)nnc3C(C)(C)N4)cccc21 [Example 460, 8-[1-(2-Methoxy-ethyl)-1H-indol-4-yl]-1,4,4,9-tetramethyl-7-(trifluoromethyloxy)-5H-[1,2,4]triazolo[4,3-a]quinoxaline]	100 to 1000 nM
CC#Cc1c[nH]c2c(-c3c(F)cc4c(c3C)-n3c(CCOC)nnc3C(C)(C)N4)cc(F)cc12 [Example 79, 7-fluoro-8-(5-fluoro-3-(prop-1-yn-1-yl)-1H-indol-7-yl)-1-(2-methoxyethyl)-4,4,9-trimethyl-4,5-dihydro-[1,2,4]triazolo[4,3-a]quinoxaline]	1000 to 15000 nM
Cc1nnc2n1-c1c(cc(F)c(-c3cccc4c3ccn4CC(F)F)c1C(F)F)NC2(C)C [Example 398, 8-[1-(2,2-Difluoro-ethyl)-1H-indol-4-yl]-9-(difluoro-methyl)-7-fluoro-1,4,4-trimethyl-5H-[1,2,4]triazolo [4,3-a]quinoxaline]	100 to 1000 nM
Cc1nnc2n1-c1c(cc(F)c(-c3cccc4c3cnn4S(C)(=O)=O)c1C(F)(F)F)NC2(C)C [Example 446, 7-fluoro-1,4,4-trimethyl-8-(1-(methylsulfonyl)-1H-indazol-4-yl)-9-(trifluoromethyl)-4,5-dihydro-[1,2,4]triazolo[4,3-a]quinoxaline]	100 to 1000 nM
CC(=O)n1ccc2c(-c3c(F)cc4c(c3F)-n3c(C)nnc3C(C)(C)N4)cc(F)cc21 [Example 4, 1-(4-(7,9-difluoro-1,4,4-trimethyl-4,5-dihydro-[1,2,4]triazolo[4,3-a]quinoxalin-8-yl)-6-fluoro-1H-indol-1-yl)ethanone]	< 100 nM
Cc1cc(-c2c(F)cc3c(c2C(F)(F)F)-n2c(C)nnc2C(C)(C)N3)c2ccn(S(C)(=O)=O)c2c1 [Example 476, 7-Fluoro-1,4,4-trimethyl-8-(6-methyl-1-methylsulfonyl-1H-indol-4-yl)-9-(trifluoromethyl)-5H-[1,2,4]triazolo [4,3-a]quinoxaline]	100 to 1000 nM
Cc1c(-c2cc(F)cc3c(C4CC4)c[nH]c23)c(F)cc2c1-n1c(C)nnc1C(C)(C)N2 [Example 33, 8-(3-cyclopropyl-5-fluoro-1H-indol-7-yl)-7-fluoro-1,4,4,9-tetramethyl-4,5-dihydro-[1,2,4]triazolo[4,3-a]quinoxaline]	< 100 nM
COCCn1ccc2c(-c3c(F)cc4c(c3C(F)F)-n3c(C)nnc3C(C)(C)N4)cc(F)cc21 [Example 402, 9-(Difluoro-methyl)-7-fluoro-8-[6-fluoro-1-(2-methoxy-ethyl)-1H-indol-4-yl]-1,4,4-trimethyl-5H-[1,2,4]triazolo[4,3-a]quinoxaline]	100 to 1000 nM
Cc1c(-c2ccc(F)c3[nH]ncc23)c(F)cc2c1-n1c(C)nnc1C(C)(C)N2 [Example 524, 7-Fluoro-8-(7-fluoro-1H-indazol-4-yl)-1,4,4,9-tetramethyl-5H-[1,2,4]triazolo[4,3-a]quinoxaline]	100 to 1000 nM
Cc1cc2c(c(C)c1-c1cccc3c1ccn3CC(F)F)-n1c(C)nnc1C(C)(C)N2 [Example 324, 8-[1-(2,2-Difluoro-ethyl)-1H-indol-4-yl]-1,4,4,7,9-pentamethyl-5H-[1,2,4]triazolo[4,3-a]quinoxaline]	100 to 1000 nM

Now from value to molecule:

IC50 or EC50 (agonist or antagonist mode not specified)	SMILES
< 100 nM	Cc1cc(-c2c(F)cc3c(c2C)-n2c(C)nnc2C(C)(C)N3)c2ccn(S(C)(=O)=O)c2c1 [Example 493, 7-Fluoro-1,4,4,9-tetramethyl-8-(6-methyl-1-methylsulfonyl-1H-indol-4-yl)-5H-[1,2,4]triazolo[4,3-a] quinoxaline]
1000 to 15000 nM	COc1cc2c(c(F)c1-c1cc(F)cc3c1ccn3S(C)(=O)=O)-n1c(C)nnc1C(C)(C)N2 [Example 255, 9-Fluoro-8-(6-fluoro-1-methylsulfonyl-1H-indol-4-yl)-7-methoxy-1,4,4-trimethyl-5H-[1,2,4]triazolo[4,3-a]quinoxaline]
1000 to 15000 nM	COc1cc2c(c(F)c1-c1cccc3c1ccn3CC(F)F)-n1c(C)nnc1C(C)(C)N2 [Example 314, 8-[1-(2,2-Difluoro-ethyl)-1H-indol-4-yl]-9-fluoro-7-methoxy-1,4,4-trimethyl-5H-[1,2,4]triazolo[4,3-a]quinoxaline]
100 to 1000 nM	Cc1nnc2n1-c1c(cc(F)c(-c3cccc4c3ccn4C3CC3)c1C(F)F)NC2(C)C [Example 514, 8-(1-Cyclopropyl-1H-indol-4-yl)-9-(difluoro-methyl)-7-fluoro-1,4,4-trimethyl-5H-[1,2,4]triazolo[4,3-a]quinoxaline]
100 to 1000 nM	Cc1nnc2n1-c1c(cc(F)c(-c3cccc4c(C#N)c[nH]c34)c1C(F)(F)F)NC2(C)C [Example 89, 7-(7-fluoro-1,4,4-trimethyl-9-(trifluoromethyl)-4,5-dihydro-[1,2,4]triazolo[4,3-a]quinoxalin-8-yl)-1H-indole-3-carbonitrile]
100 to 1000 nM	Cc1c(-c2cc(F)cc3c2cnn3CC(F)F)c(OC(F)(F)F)cc2c1-n1c(C)nnc1C(C)(C)N2 [Example 469, 8-[1-(2,2-Difluoro-ethyl)-6-fluoro-1H-indazol-4-yl]-1,4,4,9-tetramethyl-7-(trifluoromethyloxy)-5H-[1,2,4]triazolo[4,3-a]quinoxaline]
< 100 nM	Cc1c[nH]c2c(-c3c(F)cc4c(c3C(F)F)-n3c(C)nnc3C(C)(C)N4)cc(F)cc12 [Example 302, 9-(Difluoro-methyl)-7-fluoro-8-(5-fluoro-3-methyl-1H-indol-7-yl)-1,4,4-trimethyl-5H-[1,2,4]triazolo[4,3-a]quinoxaline]
< 100 nM	Cc1c(-c2cccc3c2ccn3C)c(F)cc2c1-n1c(C)nnc1C(C)(C)N2 [Example 486, 7-Fluoro-1,4,4,9-tetramethyl-8-(1-methyl-1H-indol-4-yl)-5H-[1,2,4]triazolo[4,3-a]quinoxaline]
100 to 1000 nM	CCS(=O)(=O)n1ccc2c(-c3c(OC)cc4c(c3C(F)(F)F)-n3c(C)nnc3C(C)(C)N4)cc(F)cc21 [Example 369, 8-[1-(Ethylsulfonyl)-6-fluoro-1H-indol-4-yl]-7-methoxy-1,4,4-trimethyl-9-(trifluoromethyl)-5H-[1,2,4]triazolo[4,3-a]quinoxaline]
< 100 nM	Cc1nnc2n1-c1c(cc(F)c(-c3cc(F)cc4c3cnn4CC(F)F)c1C(F)F)NC2(C)C [Example 472, 8-[1-(2,2-Difluoro-ethyl)-6-fluoro-1H-indazol-4-yl]-9-(difluoro-methyl)-7-fluoro-1,4,4-trimethyl-5H-[1,2,4]triazolo[4,3-a]quinoxaline]
100 to 1000 nM	Cc1c(-c2ccc(C#N)c3[nH]ccc23)c(F)cc2c1-n1c(C)nnc1C(C)(C)N2 [Example 534, 4-(7-Fluoro-1,4,4,9-tetramethyl-5H-[1,2,4]triazolo[4,3-a]quinoxalin-8-yl)-1H-indole-7-carbonitrile]
< 100 nM	CCS(=O)(=O)n1ccc2c(-c3c(F)cc4c(c3C)-n3c(C)nnc3C(C)(C)N4)cccc21 [Example 372, 8-[1-(Ethylsulfonyl)-1H-indol-4-yl]-7-fluoro-1,4,4,9-tetramethyl-5H-[1,2,4]triazolo[4,3-a]quinoxaline]
1000 to 15000 nM	COc1cc2c(c(C(F)(F)F)c1-c1cc(F)cc3c1cnn3S(C)(=O)=O)-n1c(C)nnc1C(C)(C)N2 [Example 376, 8-(6-Fluoro-1-methylsulfonyl-1H-indazol-4-yl)-7-methoxy-1,4,4-trimethyl-9-(trifluoromethyl)-5H-[1,2,4]triazolo[4,3-a]quinoxaline]
100 to 1000 nM	Cc1cc2c(c(C)c1-c1cc(F)cc3c(C)c[nH]c13)-n1c(C)nnc1C(C)(C)N2 [Example 341, 8-(5-Fluoro-3-methyl-1H-indol-7-yl)-1,4,4,7,9-pentamethyl-5H-[1,2,4]triazolo[4,3-a]quinoxaline]
100 to 1000 nM	Cc1c(-c2cccc3c2cnn3S(C)(=O)=O)c(F)cc2c1-n1c(C)nnc1C(C)(C)N2 [Example 377, 7-Fluoro-1,4,4,9-tetramethyl-8-(1-methylsulfonyl-1H-indazol-4-yl)-5H-[1,2,4]triazolo[4,3-a]quinoxaline]
